Assay in all cases: relative viability (nuclei count vs DMSO), 5 days (fraction); higher = more cells survive
Compound in the test “kb NB 142-70 + Lapatinib”: C1CSC2=C(C(=O)N1)SC3=C2C=C(C=C3)O [kb NB 142-70] + CS(=O)(=O)CCNCc1ccc(-c2ccc3ncnc(Nc4ccc(OCc5cccc(F)c5)c(Cl)c4)c3c2)o1 [Lapatinib] (partner 2 µM)
A digest of the protocol: (§1)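 Each reported value is a median over duplicate plates. It expresses relative viability: treated-well nuclei count divided by vehicle-well nuclei count. Lung cancer cell lines in 1536-well plates were dosed by pin tool a day after seeding, alone with one drug or with a fixed anchor-drug dose plus five library-drug doses (not always all listed) in √10 steps, and nuclei were counted after 5 days.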

Compound in test [1]: C1CSC2=C(C(=O)N1)SC3=C2C=C(C=C3)O [kb NB 142-70] + C[C@]1(O)C[C@@H](c2nc(-c3ccc4ccc(-c5ccccc5)nc4c3)c3c(N)nccn32)C1 [Linsitinib] (partner 1 µM)
The essentials: as §1

Compound in test [2]: C1CSC2=C(C(=O)N1)SC3=C2C=C(C=C3)O [kb NB 142-70] + N=C(N)NC(=N)NCCc1ccccc1 [Phenformin] (partner 250 µM)
A digest of the protocol: as §1

Compound in test [3]: NCC(=O)Nc1ccc(-n2nc(C(F)(F)F)cc2-c2ccc3c(ccc4ccccc43)c2)cc1 + Cc1cc(Nc2cc(N3CCN(C)CC3)nc(Sc3ccc(NC(=O)C4CC4)cc3)n2)n[nH]1 [Tozasertib] (partner 0.1 µM)
A digest of the protocol:
as §1

Compound in test [4]: NCC(=O)Nc1ccc(-n2nc(C(F)(F)F)cc2-c2ccc3c(ccc4ccccc43)c2)cc1 + Nc1ncn([C@H]2C[C@H](O)[C@@H](CO)O2)c(=O)n1 [Decitabine] (partner 2 µM)
A digest of the protocol:
as §1

As for UMC-11, the relative viability in the test with kb NB 142-70 + Lapatinib (first compound 0.1 µM) was found to be 0.964; with kb NB 142-70 + Lapatinib (first compound 1 µM), 0.836; with kb NB 142-70 + Lapatinib (first compound 3.162 µM) it was 0.535; in test [1] (first compound 0.1 µM), 1.04; in test [1] (first compound 1 µM) it was 0.984; in test [1] (first compound 3.162 µM), 0.599. The relative viability in test [2] (first compound 0.1 µM) came to 0.338; in test [2] (first compound 1 µM), 0.307; in test [2] (first compound 3.162 µM), 0.251; in test [3] (first compound 0.02 µM) it was 0.191; in test [3] (first compound 0.06325 µM), 0.21; in test [3] (first compound 0.2 µM), 0.218. Moreover, the relative viability came to 0.19 in test [3] (first compound 0.6325 µM); 0.183 in test [3] (first compound 2 µM); 0.63 in test [4] (first compound 0.02 µM); 0.593 in test [4] (first compound 0.06325 µM); 0.557 in test [4] (first compound 0.2 µM); 0.539 in test [4] (first compound 0.6325 µM). Further, the relative viability in test [4] (first compound 2 µM) amounted to 0.701.

Values taken from the supplement of paper PMC10307832.
